Assay results from PMC3651692 (Bioorganic & medicinal chemistry letters, 2013).

These compounds were tested against δ-opioid receptor (DOR) (Homo sapiens, UniProt P41143).
Sequence of δ-opioid receptor (DOR) (P41143 whole entry): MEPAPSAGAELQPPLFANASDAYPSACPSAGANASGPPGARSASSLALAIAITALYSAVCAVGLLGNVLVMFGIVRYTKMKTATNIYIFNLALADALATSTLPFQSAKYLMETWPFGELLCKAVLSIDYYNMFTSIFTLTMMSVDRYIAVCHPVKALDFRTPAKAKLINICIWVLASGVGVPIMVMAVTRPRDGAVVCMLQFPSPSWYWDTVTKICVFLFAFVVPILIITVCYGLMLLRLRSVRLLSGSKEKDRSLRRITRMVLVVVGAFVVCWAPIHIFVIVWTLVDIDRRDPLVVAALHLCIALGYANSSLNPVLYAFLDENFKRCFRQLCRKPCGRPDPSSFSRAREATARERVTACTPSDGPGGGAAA
Format: binding
In the case of `COC(=O)[C@@H]1C[C@H](OC(=O)/C=C\C(=O)O)C(=O)[C@H]2[C@@]1(C)CC[C@H]1C(=O)O[C@H](c3ccoc3)C[C@]21C` [Compound 13], the “Affinities Ki± SD DOR” value is reported as “no affinity”.

The compounds below were run against κ-opioid receptor (KOR) (Homo sapiens, UniProt P41145).
Sequence of κ-opioid receptor (KOR) (P41145 whole entry): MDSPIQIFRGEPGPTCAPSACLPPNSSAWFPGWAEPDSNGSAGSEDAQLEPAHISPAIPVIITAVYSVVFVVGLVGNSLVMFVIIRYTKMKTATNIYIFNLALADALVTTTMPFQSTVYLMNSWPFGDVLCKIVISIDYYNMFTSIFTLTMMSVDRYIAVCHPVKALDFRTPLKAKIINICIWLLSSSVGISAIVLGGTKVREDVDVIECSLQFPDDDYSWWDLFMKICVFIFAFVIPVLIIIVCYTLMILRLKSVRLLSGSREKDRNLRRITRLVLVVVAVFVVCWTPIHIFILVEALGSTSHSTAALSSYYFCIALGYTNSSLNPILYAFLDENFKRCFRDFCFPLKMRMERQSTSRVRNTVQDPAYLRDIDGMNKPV
Format: binding
For `COC(=O)CC(=O)O[C@H]1C[C@@H](C(=O)OC)[C@]2(C)CC[C@H]3C(=O)O[C@H](c4ccoc4)C[C@]3(C)[C@H]2C1=O` [Compound 4], the “Selectivity MOR/KOR” value was >5000.
With `CCOC(=O)CC(=O)O[C@H]1C[C@@H](C(=O)OC)[C@]2(C)CC[C@H]3C(=O)O[C@H](c4ccoc4)C[C@]3(C)[C@H]2C1=O` [Compound 5] the “Fold reduction of KOR affinity compared to 1” value (“Fold reduction of KOR affinity” for short) was 3 fold, the “Selectivity DOR/KOR” value was >476 and the “Selectivity MOR/KOR” value was >476.
`COC(=O)[C@@H]1C[C@H](OC(=O)CC(=O)OC(C)(C)C)C(=O)[C@H]2[C@@]1(C)CC[C@H]1C(=O)O[C@H](c3ccoc3)C[C@]21C` [Compound 6] was tested, and the “Fold reduction of KOR affinity” value was 24 fold, the “Selectivity DOR/KOR” value was >67 and the “Selectivity MOR/KOR” value was >67.
In the case of `COC(=O)CCC(=O)O[C@H]1C[C@@H](C(=O)OC)[C@]2(C)CC[C@H]3C(=O)O[C@H](c4ccoc4)C[C@]3(C)[C@H]2C1=O` [Compound 7], the “Fold reduction of KOR affinity” value is reported as 6 fold, the “Selectivity DOR/KOR” value is reported as >277 and the “Selectivity MOR/KOR” value is reported as >277.
With `CCOC(=O)CCC(=O)O[C@H]1C[C@@H](C(=O)OC)[C@]2(C)CC[C@H]3C(=O)O[C@H](c4ccoc4)C[C@]3(C)[C@H]2C1=O` [Compound 8] the “Fold reduction of KOR affinity” value was 70 fold, the “Selectivity DOR/KOR” value was >23 and the “Selectivity MOR/KOR” value was >23.
In the case of `COC(=O)CCCC(=O)O[C@H]1C[C@@H](C(=O)OC)[C@]2(C)CC[C@H]3C(=O)O[C@H](c4ccoc4)C[C@]3(C)[C@H]2C1=O` [Compound 9], the “Fold reduction of KOR affinity” value is reported as 49 fold and the “Selectivity DOR/KOR” value is reported as >33.
In the case of `COC(=O)CCCCC(=O)O[C@H]1C[C@@H](C(=O)OC)[C@]2(C)CC[C@H]3C(=O)O[C@H](c4ccoc4)C[C@]3(C)[C@H]2C1=O` [Compound 10], the “Selectivity DOR/KOR” value is reported as >17 and the “Selectivity MOR/KOR” value is reported as >17.
With `COC(=O)[C@@H]1C[C@H](OC(=O)CCCC(=O)O)C(=O)[C@H]2[C@@]1(C)CC[C@H]1C(=O)O[C@H](c3ccoc3)C[C@]21C` [Compound 12] the “Selectivity DOR/KOR” value was >38.
`COC(=O)[C@@H]1C[C@H](OC(=O)/C=C\C(=O)O)C(=O)[C@H]2[C@@]1(C)CC[C@H]1C(=O)O[C@H](c3ccoc3)C[C@]21C` [Compound 13] was tested, and the “Affinities Ki± SD KOR” value was “no affinity”.
With `COC(=O)/C=C/C(=O)O[C@H]1C[C@@H](C(=O)OC)[C@]2(C)CC[C@H]3C(=O)O[C@H](c4ccoc4)C[C@]3(C)[C@H]2C1=O` [Compound 14] the “Fold reduction of KOR affinity” value was 6 fold and the “Selectivity DOR/KOR” value was >256.
In the case of `CCOC(=O)/C=C/C(=O)O[C@H]1C[C@@H](C(=O)OC)[C@]2(C)CC[C@H]3C(=O)O[C@H](c4ccoc4)C[C@]3(C)[C@H]2C1=O` [Compound 15], the “Selectivity DOR/KOR” value is reported as >23.
For `COC(=O)[C@@H]1C[C@H](OC(=O)c2ccccc2C(=O)O)C(=O)[C@H]2[C@@]1(C)CC[C@H]1C(=O)O[C@H](c3ccoc3)C[C@]21C` [Compound 16], the “Selectivity DOR/KOR” value was >4 and the “Selectivity MOR/KOR” value was >4.

Each compound was assayed against μ-opioid receptor (MOR) (Homo sapiens, UniProt P35372).
Sequence of μ-opioid receptor (MOR) (P35372 whole entry, species assumed): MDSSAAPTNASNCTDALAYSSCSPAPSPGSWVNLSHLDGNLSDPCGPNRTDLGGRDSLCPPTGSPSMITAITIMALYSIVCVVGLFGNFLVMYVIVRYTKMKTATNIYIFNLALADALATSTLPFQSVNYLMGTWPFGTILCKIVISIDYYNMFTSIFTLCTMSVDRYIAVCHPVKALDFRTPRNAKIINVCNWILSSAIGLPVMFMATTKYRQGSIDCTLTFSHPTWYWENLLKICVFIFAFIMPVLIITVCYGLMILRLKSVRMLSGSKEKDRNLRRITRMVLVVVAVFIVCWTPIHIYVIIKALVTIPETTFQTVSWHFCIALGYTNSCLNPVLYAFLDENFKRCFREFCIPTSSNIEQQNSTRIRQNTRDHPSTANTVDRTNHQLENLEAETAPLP
Format: binding
For `COC(=O)[C@@H]1C[C@H](OC(=O)/C=C\C(=O)O)C(=O)[C@H]2[C@@]1(C)CC[C@H]1C(=O)O[C@H](c3ccoc3)C[C@]21C` [Compound 13], the “Affinities Ki± SD MOR” value was “no affinity”.
